Measurements from patent US10238642B2, “Methods for treating neurogenic orthostatic hypotension” (Theravance Biopharma R&D IP, LLC, priority 2016, dated 2019).

Assays:
[1] = system: tyramine pressor response; assay: Cardiovascular model in anesthetized rat: inhibition of tyramine pressor response; format: in vivo; conditions: iv, read-out: estimated potency for inhibition of tyramine-induced increase in SBP (Tyr EC50)
rat native NET = assay: [3H]-NE uptake inhibition in rat cortical synaptosomes; format: biochemical
Text: The in vitro pharmacology of 4-[2-(2,4,6-trifluorophenoxymethyl)phenyl]-piperidine at human recombinant and rat native monoamine transporters was characterized as described in Smith et al., Inter. J. Neuropsychopharmcol. (2015) 1-11; and Tsuruda et al., J. Pharmacol. Toxicol. Meth. (2010) 61:192-204. See also, e.g., U.S. Pat. No. 8,304,432 B2 and U.S. Pat. No. 8,304,433 B2. Radioligands were sourced commercially (Perkin Elmer LifeSciences or GE Healthcare Life Sciences).
Briefly, membranes prepared from HEK293 (Human Embryonic Kidney 293) or CHO-K1 (Chinese Hamster Ovary-K1) cells stably transfected with human recombinant SERT (HEK293-hSERT), NET (HEK293-hNET), or DAT (CHO-KT-hDAT) were incubated for 1 hr at 22° C. in the absence, or presence, of 4-[2-(2,4,6-trifluorophenoxymethyl)phenyl]piperidine and [^3H]-citalopram (1.0 nM) for SERT, [^3H]-nisoxetine (2.0 nM) for NET, and [^3H]-WIN35428 (3.0 nM) for DAT in 50 mM Tris-HCl, 120 mM NaCl, 5 mM KCl, 0.025% BSA, 100 μM ascorbic acid, pH 7.4. Rat cortical membrane preparations were incubated with [^3H]-citalopram (2.0 nM) for SERT or [3H]-nisoxetine (4.0 nM) for NET for 1 hr at 22° C. […] Binding and uptake assays were terminated by rapid filtration and radioactivity determined by liquid scintillation spectroscopy.

NET = NET (Rattus norvegicus, UniProt Q9WTR4); assay: Ex vivo transporter occupancy in rat spinal cord (PK/PD model), NET; conditions: estimate (% CV)
Sequence of NET (Q9WTR4 1-597): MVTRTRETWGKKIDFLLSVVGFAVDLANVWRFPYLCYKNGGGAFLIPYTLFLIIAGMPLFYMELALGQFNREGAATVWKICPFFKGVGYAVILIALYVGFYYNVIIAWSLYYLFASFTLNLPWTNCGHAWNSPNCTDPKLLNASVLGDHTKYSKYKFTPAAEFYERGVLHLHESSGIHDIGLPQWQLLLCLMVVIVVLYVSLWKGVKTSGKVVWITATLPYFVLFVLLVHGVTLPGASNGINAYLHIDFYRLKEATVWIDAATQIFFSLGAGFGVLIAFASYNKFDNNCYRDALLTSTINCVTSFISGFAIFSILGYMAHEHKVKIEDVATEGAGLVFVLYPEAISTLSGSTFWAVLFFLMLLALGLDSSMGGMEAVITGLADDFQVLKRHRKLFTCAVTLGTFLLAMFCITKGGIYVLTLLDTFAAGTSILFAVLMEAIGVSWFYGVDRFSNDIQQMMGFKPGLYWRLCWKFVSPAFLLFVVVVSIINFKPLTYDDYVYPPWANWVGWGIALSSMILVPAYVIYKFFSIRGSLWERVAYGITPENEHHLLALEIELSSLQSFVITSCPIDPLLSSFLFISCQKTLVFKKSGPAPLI
Protocol: (§1) Adult male Sprague Dawley rats (Charles River) were housed under controlled laboratory conditions (temperature at 21±1° C.) on a 12:12 hour light-dark cycle. Animals were given free access to food and water upon arrival to the facility and animals were acclimatized to their holding room for at least 48 hours. Animals were fasted but allowed free access to water for 15-18 hours prior to dosing.
(§2) Rats (n=6/timepoint/dose level) received a single oral dose of 4-[2-(2,4,6-trifluorophenoxymethyl)phenyl]piperidine (0.3, 1, 5, 10, 30, and 60 mg/kg) and were euthanized by decapitation at specified time points (0.5, 2, 4, 6, and 8 hr for 5 mg/kg dose level; 2 hr for 0.3, 1, 10, 30, and 60 mg/kg dose levels) post-administration. Spinal cords were dissected for ex vivo transporter occupancy and PK assessments from the same animals. The spinal cord was harvested by hydraulic extrusion using phosphate-buffered saline, and the lumbar segment dissected and frozen on dry ice. The remaining spinal cord segments were collected and homogenized in water (25% w/w) for PK analysis. All samples were stored at −80° C. until analysis.
A kinetic radioligand binding assay was used to determine NET and SERT occupancy in rat spinal cord, as described previously in Bourdet et al., J. Pharm. Exp. Ther. (2012) 341:137-145. PK/PD parameters were estimated by a compartmental modeling approach (WinNonlin Version 5.0.1, Pharsight Corporation). One- and two-compartment PK models with first-order absorption and elimination were evaluated. The one-compartment model was selected. The pharmacodynamics model was an effect compartment Emax model linked directly to the central PK compartment (WinNonlin PK Model 3, PD Model 101). Selection of models was based upon best fit in terms of visual inspection, Akaike Information Criteria, and weighted residual sum of squares using the Gauss-Newton minimization method.

[2] = Plasma protein binding, human; format: in vitro ADME
CYP3A4 = CYP3A4 (Homo sapiens, UniProt P08684); conditions: cited from earlier work
Sequence of CYP3A4 (P08684 whole entry): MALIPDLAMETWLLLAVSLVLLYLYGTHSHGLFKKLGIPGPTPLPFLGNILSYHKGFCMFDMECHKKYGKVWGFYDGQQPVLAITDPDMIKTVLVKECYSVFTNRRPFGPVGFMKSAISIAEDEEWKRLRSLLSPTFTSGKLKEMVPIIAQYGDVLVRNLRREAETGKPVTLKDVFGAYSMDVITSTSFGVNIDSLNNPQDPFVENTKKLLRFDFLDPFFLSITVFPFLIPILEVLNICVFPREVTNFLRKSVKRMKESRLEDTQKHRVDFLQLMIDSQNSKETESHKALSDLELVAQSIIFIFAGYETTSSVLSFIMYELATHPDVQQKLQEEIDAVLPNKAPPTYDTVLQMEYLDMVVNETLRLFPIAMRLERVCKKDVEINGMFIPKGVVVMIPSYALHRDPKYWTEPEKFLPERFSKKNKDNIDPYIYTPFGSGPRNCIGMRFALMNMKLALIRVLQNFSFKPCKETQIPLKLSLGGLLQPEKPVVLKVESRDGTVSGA

SERT = biological target: T1, SERT (Rattus norvegicus, UniProt P31652); assay: Ex vivo transporter occupancy in rat spinal cord (PK/PD model), SERT
T1 construct: Spinal cords were dissected for ex vivo transporter occupancy and PK assessments from the same animals; from tissue; host or cells: lumbar spinal cord of orally dosed male Sprague Dawley rats
T1 sequence (P31652 whole entry): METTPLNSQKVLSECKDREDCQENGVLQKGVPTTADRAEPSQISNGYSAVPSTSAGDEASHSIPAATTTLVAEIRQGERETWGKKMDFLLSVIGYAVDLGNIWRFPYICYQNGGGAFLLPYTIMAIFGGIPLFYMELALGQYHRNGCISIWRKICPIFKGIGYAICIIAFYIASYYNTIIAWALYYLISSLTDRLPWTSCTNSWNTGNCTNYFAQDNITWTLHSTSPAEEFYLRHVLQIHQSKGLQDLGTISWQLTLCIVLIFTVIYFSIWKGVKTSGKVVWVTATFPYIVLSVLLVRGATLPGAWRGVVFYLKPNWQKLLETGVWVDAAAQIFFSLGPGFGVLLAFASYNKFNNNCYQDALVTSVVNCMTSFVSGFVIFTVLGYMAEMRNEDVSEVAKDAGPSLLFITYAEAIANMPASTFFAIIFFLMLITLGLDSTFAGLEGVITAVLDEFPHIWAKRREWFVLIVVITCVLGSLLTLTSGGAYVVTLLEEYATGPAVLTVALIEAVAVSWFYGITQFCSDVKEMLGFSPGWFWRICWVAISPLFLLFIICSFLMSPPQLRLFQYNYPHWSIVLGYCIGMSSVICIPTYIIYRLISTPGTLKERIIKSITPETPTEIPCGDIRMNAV
Protocol: as §1, §2
A kinetic radioligand binding assay was used to determine NET and SERT occupancy in rat spinal cord, as described previously in Bourdet et al., J. Pharm. Exp. Ther. (2012) 341:137-145. […] One- and two-compartment PK models with first-order absorption and elimination were evaluated. […]

Fc1cc(F)c(OCc2ccccc2C2CCNCC2)c(F)c1 [4-[2-(2,4,6-trifluorophenoxymethyl)phenyl]piperidine]
EC50 [1]: 0.86 nM | apparent functional selectivity for NET over SERT (rat native NET): 10 fold | Emax (% occupancy), NET (NET; rat spinal cord, single oral dose): 92.0 (19) % occupancy | EC50 (NET; rat spinal cord): 36.4 nM | keo (first-order equilibration rate constant), NET (NET; rat): 1.78 (57) hr^−1 | fraction unbound [2]: 0.209 | reduction of metabolism by chemical inhibition of CYP3A4 (CYP3A4): 34% | EC50 (SERT; projected from rat, accounting for species differences in plasma protein binding): 74.4 nM | keo (first-order equilibration rate constant), SERT (SERT; rat, estimate (% CV)): 11.0 (86) hr^−1
